Source: patent US9108926B2, “Disubstituted 5-fluoro-pyrimidines” (Bayer Intellectual Property GmbH, priority 2011, dated 2015)

Experiments:
HeLa-MaTu-ADR cells = assay: Proliferation assay, HeLa-MaTu-ADR; type: cell-based; details: Homo sapiens, 96 h; HeLa-MaTu-ADR, 4 days, crystal violet; read-out: Inhibition of HeLa-MaTu-ADR cell proliferation IC50
Description: (§1) After 24 hours, the cells of one plate (zero-point plate) were stained with crystal violet (see below), while the medium of the other plates was replaced by fresh culture medium (200 μl), to which the test substances were added in various concentrations (0 μM, as well as in the range of 0.001-10 μM; the final concentration of the solvent dimethyl sulfoxide was 0.5%). The cells were incubated for 4 days in the presence of test substances. Cell proliferation was determined by staining the cells with crystal violet: the cells were fixed by adding 20 μl/measuring point of an 11% glutaric aldehyde solution for 15 minutes at room temperature. After three washing cycles of the fixed cells with water, the plates were dried at room temperature. The cells were stained by adding 100 μl/measuring point of a 0.1% crystal violet solution (pH 3.0). After three washing cycles of the stained cells with water, the plates were dried at room temperature. The dye was dissolved by adding 100 μl/measuring point of a 10% acetic acid solution. […] The change of cell number, in percent, was calculated by normalization of the measured values to the extinction values of the zero-point plate (=0%) and the extinction of the untreated (0 μm) cells (=100%).

HeLa cells = assay: Proliferation assay, HeLa; type: cell-based; details: Homo sapiens, 96 h, 4 days, crystal violet, read-out: Inhibition of HeLa cell proliferation IC50
Description: as §1

B16F10 cells = assay: Proliferation assay, B16F10; type: cell-based; details: Mus musculus, B16-F10, 96 h; B16F10, 4 days, crystal violet; read-out: Inhibition of B16F10 cell proliferation IC50
Description: as §1

A2780 cells = assay: Proliferation assay, A2780; type: cell-based; details: Homo sapiens, 96 h; A2780, 4 days, crystal violet; read-out: Inhibition of A2780 cell proliferation IC50
Description: Cultivated tumour cells (HeLa, human cervical tumour cells, ATCC CCL-2; NCI-H460, human non-small cell lung carcinoma cells, ATCC HTB-177; A2780, human ovarian carcinoma cells, ECACC #93112519; DU 145, hormone-independent human prostate carcinoma cells, ATCC HTB-81; HeLa-MaTu-ADR, multidrug-resistant human cervical carcinoma cells, EPO-GmbH Berlin; Caco-2, human colorectal carcinoma cells, ATCC HTB-37; B16F10, mouse melanoma cells, ATCC CRL-6475) were plated at a density of 5,000 cells/well (DU145, HeLa-MaTu-ADR), 3,000 cells/well (NCI-H460, HeLa), 2,500 cells/well (A2780), 1,500 cells/well (Caco-2), or 1,000 cells/well (B16F10) in a 96-well multititer plate in 200 μL of their respective growth medium supplemented 10% fetal calf serum. […] Cell proliferation was determined by staining the cells with crystal violet: the cells were fixed by adding 20 μl/measuring point of an 11% glutaric aldehyde solution for 15 minutes at room temperature. […] The extinction was determined by photometry at a wavelength of 595 nm. The change of cell number, in percent, was calculated by normalization of the measured values to the extinction values of the zero-point plate (=0%) and the extinction of the untreated (0 μm) cells (=100%).

NCI-H460 cells = assay: Proliferation assay, NCI-H460; type: cell-based; details: Homo sapiens, 96 h; NCI-H460, 4 days, crystal violet; read-out: Inhibition of NCI-H460 cell proliferation IC50
Description: as §1

Caco-2 cells = assay: Proliferation assay, Caco-2; type: cell-based; details: Homo sapiens, 96 h; Caco-2, 4 days, crystal violet; read-out: Inhibition of Caco-2 cell proliferation IC50
Description: as §1

Caco-2 permeation assay = type: in vitro ADME; details: human, pH 7.2, Caco-2, test compound 2 μM
Description: 4. Caco-2 Permeation Assay:
Caco-2 cells (purchased from DSMZ Braunschweig, Germany) were seeded at a density of 4.5×10^4 cells per well on 24 well insert plates, 0.4 μm pore size, and grown for 15 days in DMEM medium supplemented with 10% fetal bovine serum, 1% GlutaMAX (100×, GIBCO), 100 U/mL penicillin, 100 μg/mL streptomycin (GIBCO) and 1% non essential amino acids (100×). Cells were maintained at 37° C. in a humified 5% CO2 atmosphere. Medium was changed every 2-3 day. Before running the permeation assay, the culture medium was replaced by a FCS-free hepes-carbonate transport buffer (pH 7.2). For assessment of monolayer integrity the transepithelial electrical resistance (TEER) was measured. Test compounds were predissolved in DMSO and added either to the apical or basolateral compartment in final concentration of 2 μM in transport buffer. Before and after 2 h incubation at 37° C. samples were taken from both compartments. Analysis of compound content was done after precipitation with methanol by LC/MS/MS analysis. Permeability (Papp) was calculated in the apical to basolateral (A→B) and basolateral to apical (B→A) directions. […] The efflux ratio basolateral (B) to apical (A) was calculated by dividing the Papp B−A by the Papp A−B. In addition the compound recovery was calculated. The following reference compounds were used for the classification of the permeability class: Antipyrine, Pyrazosin, Verapamil, Fluvastatin, Cimetidine, Ranitidine, Atenolol, Sulfasalazine.

CDK2/CycE = CDK2/CycE (Homo sapiens, UniProt P24941); assay: CDK2/CycE kinase assay (TR-FRET, Method 2)
Description: CDK2/CycE-inhibitory activity of compounds of the present invention was quantified employing the CDK2/CycE TR-FRET assay as described in the following paragraphs:
Recombinant fusion proteins of GST and human CDK2 and of GST and human CycE, expressed in insect cells (Sf9) and purified by Glutathion-Sepharose affinity chromatography, were purchased from ProQinase GmbH (Freiburg, Germany). As substrate for the kinase reaction biotinylated peptide biotin-Ttds-[sequence] (C-terminus in amid form) was used which can be purchased e.g. form the company JERINI Peptide Technologies (Berlin, Germany).
For the assay 50 nl of a 100 fold concentrated solution of the test compound in DMSO was pipetted into a black low volume 384 well microtiter plate (Greiner Bio-One, Frickenhausen, Germany), 2 μl of a solution of CDK2/CycE in aqueous assay buffer [50 mM Tris/HCl pH 8.0, 10 mM MgCl2, 1.0 mM dithiothreitol, 0.1 mM sodium ortho-vanadate, 0.01% (v/v) Nonidet-P40 (Sigma)] were added and the mixture was incubated for 15 min at 22° C. to allow pre-binding of the test compounds to the enzyme before the start of the kinase reaction. Then the kinase reaction was started by the addition of 3 μl of a solution of adenosine-tri-phosphate (ATP, 16.7 μM=>final conc. in the 5 μl assay volume is 10 μM) and substrate (1.25 μM=>final conc. in the 5 μl assay volume is 0.75 μM) in assay buffer and the resulting mixture was incubated for a reaction time of 25 min at 22° C. The concentration of CDK2/CycE was adjusted depending of the activity of the enzyme lot and was chosen appropriate to have the assay in the linear range, typical concentrations were in the range of 130 ng/mL. The reaction was stopped by the addition of 5 μl of a solution of TR-FRET detection reagents (0.2 μM streptavidine-XL665 [Cisbio Bioassays, Codolet, France] and 1 nM anti-RB(pSer807/pSer811)-antibody from BD Pharmingen [#558389] and 1.2 nM LANCE EU-W1024 labeled anti-mouse IgG antibody [Perkin-Elmer, product no. AD0077]) in an aqueous EDTA-solution (100 mM EDTA, 0.2% (w/v) bovine serum albumin in 100 mM HEPES/NaOH pH 7.0).
The resulting mixture was incubated 1 h at 22° C. to allow the formation of complex between the phosphorylated biotinylated peptide and the detection reagents. Subsequently the amount of phosphorylated substrate was evaluated by measurement of the resonance energy transfer from the Eu-chelate to the streptavidine-XL. Therefore, the fluorescence emissions at 620 nm and 665 nm after excitation at 350 nm was measured in a TR-FRET reader, e.g. a Rubystar (BMG Labtechnologies, Offenburg, Germany) or a Viewlux (Perkin-Elmer). The ratio of the emissions at 665 nm and at 622 nm was taken as the measure for the amount of phosphorylated substrate.

DU145 cells = assay: Proliferation assay, DU145; type: cell-based; details: Homo sapiens, DU-145, 96 h; DU145, 4 days, crystal violet; read-out: Inhibition of DU145 cell proliferation IC50
Description: as §1

COc1cc(F)ccc1-c1nc(Nc2cc(F)cc(CS(C)(=O)=O)c2)ncc1F [Example 12, 5-Fluoro-4-(4-fluoro-2-methoxyphenyl)-N-{3-fluoro-5-[(methylsulfonyl)methyl]phenyl}pyrimidin-2-amine]
IC50 (HeLa-MaTu-ADR cells): 120 nM
IC50 (HeLa cells): 110 nM
IC50 (B16F10 cells): 360 nM
IC50 (A2780 cells): 110 nM
IC50 (NCI-H460 cells): 360 nM
IC50 (Caco-2 cells): 380 nM
Papp A→B at 2 h, 2 μM (Caco-2 permeation assay; apical to basolateral, read-out: Papp A-B (Mari)): 9.7 ×10⁻⁶ cm/s
Papp B→A at 2 h, 2 μM (Caco-2 permeation assay; basolateral to apical, read-out: Papp B-A (Mari)): 3.1 ×10⁻⁶ cm/s
IC50 (CDK2/CycE): 200 nM
IC50 (DU145 cells): 310 nM
